Experiments:
SWELL1 protein [1] = molecular target: T1, SWELL1 protein (Mus musculus, UniProt Q80WG5); experiment: Glucolipotoxic stress (palmitate + glucose) SWELL1 protein in 3T3-F442A adipocytes; conditions: 10 μM 96 h, 1 mM palmitate + 25 mM glucose
CYP 3A4 = molecular target: T2, CYP 3A4 (Homo sapiens, UniProt P08684); experiment: Cytochrome P450 inhibition assay, CYP 3A4; type: in vitro ADME; conditions: human liver microsomes
T2 construct: Human liver microsomes were diluted in Potassium phosphate buffer; tissue Charles River Laboratory (performed the study); host or cells: human liver microsomes

R103E mutant SWELL1 = molecular target: T3, R103E mutant SWELL1 (Homo sapiens, UniProt Q8IWT6, R103E); experiment: ICl,SWELL inhibition in R103E mutant SWELL1 overexpressing HEK-293 cells; type: cell-based; conditions: R103E expressing HEK cells, 10 and 7 μM
T3 construct: expressed in transfected cells; host or cells: HEK-293

[2] = molecular target: T4, closed SWELL1-LRRC8 channel in HEK-293 cells (Homo sapiens, UniProt Q8IWT6); experiment: ICl,SWELL inhibition on application to the closed SWELL1-LRRC8 channel (30 min preincubation), HEK-293 cells; type: cell-based; conditions: 30 minutes prior to hypotonic activation
T4 construct: endogenous in cells; host or cells: HEK-293 (ATCC CRL-1573)
Description: Patch-clamp recordings of β-cells and mature adipocytes were performed as described previously (Kang et al., 2018; Zhang et al., 2017). 3T3-F442A WT and KO preadipocytes were prepared as described in the Cell culture section above. For SWELL1 overexpression recordings, preadipocytes were first transduced with Ad5-CAG-LoxP-stop-LoxP-3×Flag-SWELL1 (MOI 12) in 2% FBS culture medium for two days and then overexpression induced by adding Ad5-CMV-Cre-wt-lRES-eGFP (MOI 10-12) in 2% FBS culture medium for two more days and changed to 10% FBS containing culture media and were selected based on GFP expression (˜2-3 days). For cell recordings, islets were transduced with Ad-RIP2-GFP and then dispersed after 48-72 hours for patch-clamp experiments. GFP+ cells marked β-cells selected for patch-clamp recordings. […] Recordings were measured using […] amplifier paired to a Digidata 1550 digitizer using pClamp 10.4 software. The extracellular buffer composition for hypotonic stimulation contains 90 mM NaCl, 2 mM CsCl, 1 mM MgCl, 1 mM CaCb, 10 mM HEPES, 10 mM Mannitol, pH 7.4 with NaOH (210 mOsm/kg). The extracellular isotonic buffer composition is same as above except for Mannitol concentration of 110 mM (300 mOsm/kg). The composition of intracellular buffer is 120 mM L-aspartic acid, 20 mM CsCl, 1 mM MgCl, 5 mM EGTA, 10 mM HEPES, 5 mM MgATP, 120 mM CsOH, 0.1 mM GTP, pH 7.2 with CsOH. All recordings were carried out at room temperature (RT) with HEK-293 cells, β-cells and 3T3-F442A cells performed in whole-cell configuration and human adipocytes in perforated-patch configuration, as previously described (Kang et al., 2018; Zhang et al., 2017).

VRAC/ICl,SWELL = VRAC/ICl,SWELL (Homo sapiens, UniProt Q8IWT6); conditions: selective VRAC/ICl,SWELL inhibitor; cited from earlier work
HFD-T2D mice, NAFLD = experiment: Liver mass, triglycerides and NAFLD histology in HFD mice; type: in vivo; conditions: vs vehicle
Description: Gross liver weights were measured and identical sections from right medial lobe of liver were dissected for further examinations. Total triglyceride content was determined by homogenizing 10-50 mg of tissue in 1.5 ml of chloroform:methanol (2:1 v/v) and centrifuged at 12000 rpm for 10 mins at 4° C. An aliquot, 20 ul, was evaporated in a 1.5 ml microcentrifuge tube for 30 mins. Triglyceride content was determined by adding 100 μl of Infinity Triglyceride Reagent (Fisher Scientific) to the dried sample followed by 30 min incubation at RT. The samples were then transferred to a 96 well plate along with standards (0-2000 mg/di) and absorbance was measured at 540 nm and the final concentration was determined by normalizing to tissue weight. For histological examination, liver sections were fixed in 10% zinc formalin and paraffin embedded for sectioning. Hematoxylin and eosin (H&E) stained sections were then assessed for steatosis grade, lobular inflammation and hepatocyte ballooning for non-alcoholic fatty liver disease (NAFLD) scoring as described (Kleiner et al., 2005; Liang et al., 2014; Rauckhorst et al., 2017).
Nonalcoholic fatty liver disease (NAFLD), like T2D, is associated with insulin resistance. NASH is an advanced form of nonalcoholic liver disease defined by three histological features: hepatic steatosis, hepatic lobular inflammation, hepatocyte damage (ballooning) and can be present without or without fibrosis. NAFLD and T2D likely share at least some pathophysiologic mechanisms because more than one-third of patients (37%) with T2D have NASH and almost one-half of patients with NASH (44%) have T2D. […] This improved metabolic state can reduce ectopic lipid deposition and NAFLD that is associated with obesity and T2D.

[3] = test system: delayed rectifier channels; conditions: cited from earlier work
SWELL1 protein [4] = molecular target: T1, SWELL1 protein; experiment: SWELL1 protein expression in adipose tissue of treated T2D mice; type: in vivo; set-up: western blots detecting SWELL1 protein in visceral fat of C57BL/6 mice on high-fat diet; from tissue; host or cells: visceral / inguinal adipose tissue of C57BL/6 HFD and KKAy mice; conditions: 5 mg/kg i.p.
Description: All compounds were dissolved in Kolliphor® EL (Sigma, #C5135).
(SEQ ID NO: 13) (Pacific Antibodies).

human Kv = conditions: cited from earlier work
[5] = HFD 16 weeks then intermittent dosing over 5 weeks

SMILES	Prevention of palmitate/glucose-induced SWELL1 protein reduction (SWELL1 protein [1])	IC50 (CYP 3A4) [µM]	ICl,SWELL inhibition in R103E mutant vs WT (R103E mutant SWELL1)	Subsequent hypotonic SWELL1-LRRC8 activation ([2]; 250 nM)	Subsequent hypotonic SWELL1-LRRC8 activation ([2]; 1 μM)	IC50 (VRAC/ICl,SWELL) [µM]	Absolute and body mass-normalized liver mass (HFD-T2D mice, NAFLD; [5])	Hepatic triglyceride concentration (HFD-T2D mice, NAFLD; [5])	Hepatic steatosis (histologic evaluation) (HFD-T2D mice, NAFLD; HFD mice)	Hepatocyte damage (histologic evaluation) (HFD-T2D mice, NAFLD; HFD mice)	Improvement of NAFLD activity score (NAS) (HFD-T2D mice, NAFLD; HFD mice) [points]	Effect on delayed rectifier channels [3]	SWELL1 expression in adipose tissue (SWELL1 protein [4]; HFD-fed T2D mice) [fold]	SWELL1 expression in adipose tissue (SWELL1 protein [4]; T2D KKAy mice, compared to non-T2D C57/B6 and KKAa)	Effect on human Kv channels (human Kv)
CCCCC1(C2CCCC2)Cc2cc(OCCCCCC(=O)O)c(Cl)c(Cl)c2C1=O (stereo not shown) [SN-406, 6-((2-butyl-6,7-dichloro-2-cyclopentyl-1-oxo-2,3-dihydro-1H-inden-5-yl)oxy)hexanoic acid]	entirely prevented	> 10	reduced	markedly suppresses and delays	markedly suppresses and delays										
CCCCC1(C2CCCC2)Cc2cc(OCCCC(=O)O)c(Cl)c(Cl)c2C1=O (stereo not shown) [SN-401, 4-((2-butyl-6,7-dichloro-2-cyclopentyl-1-oxo-2,3-dihydro-1H-inden-5-yl)oxy)butanoic acid]	entirely prevented	> 10		markedly suppresses and delays	markedly suppresses and delays	~5	reduced	lower	significantly reduced	significantly reduced	> 2	no effect	2.3	increases	no effect
